Laboratory results reported in patent US20200165257A1, “INHIBITORS OF PHOSPHOINOSITIDE 3-KINASE AND HISTONE DEACETYLASE FOR TREATMENT OF CANCER” (THE UNITED STATES OF AMERICA, AS REPRESENTED BY THE …, priority 2017, published 2020).

Experiments:
HDAC6 = biological target: T1, HDAC6 (Homo sapiens, UniProt Q9UBN7); assay: HDAC Fluorescent Activity Assay; format: biochemical; conditions: symbols ++ / +; read-out: HDAC6 Inhibition Activity (IC50 class)
T1 sequence (Q9UBN7 1-1215): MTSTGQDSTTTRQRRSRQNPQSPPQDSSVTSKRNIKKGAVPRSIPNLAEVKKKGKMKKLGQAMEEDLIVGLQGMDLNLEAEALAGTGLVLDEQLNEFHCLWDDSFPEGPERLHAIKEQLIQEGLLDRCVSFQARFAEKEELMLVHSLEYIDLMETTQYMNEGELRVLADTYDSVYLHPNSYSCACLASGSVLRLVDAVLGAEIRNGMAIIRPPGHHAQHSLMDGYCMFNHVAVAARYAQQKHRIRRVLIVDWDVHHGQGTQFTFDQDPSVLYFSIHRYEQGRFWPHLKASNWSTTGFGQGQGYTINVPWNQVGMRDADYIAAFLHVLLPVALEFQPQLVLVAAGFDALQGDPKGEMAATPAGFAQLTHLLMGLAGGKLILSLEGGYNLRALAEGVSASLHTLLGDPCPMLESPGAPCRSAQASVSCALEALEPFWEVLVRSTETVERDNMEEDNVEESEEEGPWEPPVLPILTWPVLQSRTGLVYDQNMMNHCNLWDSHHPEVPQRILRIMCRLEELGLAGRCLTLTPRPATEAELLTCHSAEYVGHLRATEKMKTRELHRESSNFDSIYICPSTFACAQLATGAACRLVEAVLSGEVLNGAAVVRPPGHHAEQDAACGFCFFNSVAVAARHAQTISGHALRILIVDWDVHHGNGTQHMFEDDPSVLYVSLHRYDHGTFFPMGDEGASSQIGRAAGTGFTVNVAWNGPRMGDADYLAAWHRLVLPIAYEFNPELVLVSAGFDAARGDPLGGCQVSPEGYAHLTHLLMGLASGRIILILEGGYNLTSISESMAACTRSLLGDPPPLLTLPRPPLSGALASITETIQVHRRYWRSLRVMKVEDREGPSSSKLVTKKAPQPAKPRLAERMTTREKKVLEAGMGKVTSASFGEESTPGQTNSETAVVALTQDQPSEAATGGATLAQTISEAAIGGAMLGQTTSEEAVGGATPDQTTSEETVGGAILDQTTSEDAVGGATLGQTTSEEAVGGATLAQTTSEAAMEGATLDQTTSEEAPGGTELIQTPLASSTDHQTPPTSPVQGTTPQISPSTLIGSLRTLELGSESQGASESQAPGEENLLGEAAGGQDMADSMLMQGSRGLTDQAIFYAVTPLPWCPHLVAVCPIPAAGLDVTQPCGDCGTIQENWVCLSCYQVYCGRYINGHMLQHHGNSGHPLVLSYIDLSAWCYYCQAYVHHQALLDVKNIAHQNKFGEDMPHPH

[1] = tested on: Leukemia Cell Line CCRF-CEM; assay: cells; format: cell-based; conditions: Homo sapiens, single dose, 10 uM compound concentration, read-out: inhibition of proliferation
[2] = tested on: Leukemia Cell Line HL-60(TB); format: cell-based; conditions: Homo sapiens; HL-60(TB); single dose, 10 uM compound concentration; read-out: inhibition of proliferation
Leukemia Cell Line K-562 = format: cell-based; conditions: Homo sapiens, K562; K-562; single dose, 10 uM compound concentration; read-out: inhibition of proliferation
[3] = tested on: Leukemia Cell Line MOLT-4; format: cell-based; conditions: Homo sapiens; MOLT-4; single dose, 10 uM compound concentration; read-out: inhibition of proliferation
[4] = tested on: Leukemia Cell Line RPMI-8226; format: cell-based; conditions: Homo sapiens; RPMI-8226; single dose, 10 uM compound concentration; read-out: inhibition of proliferation
[5] = tested on: Melanoma Cell Line UACC-62; assay: cells; format: cell-based; conditions: Homo sapiens; UACC-62; single dose, 10 uM compound concentration; read-out: inhibition of proliferation
Ovarian Cell Line IGROV1 = format: cell-based; conditions: Homo sapiens, IGROV-1; IGROV1; single dose, 10 uM compound concentration; read-out: inhibition of proliferation
[6] = tested on: Ovarian Cell Line OVCAR-8; assay: cells; format: cell-based; conditions: Homo sapiens; OVCAR-8; single dose, 10 uM compound concentration; read-out: inhibition of proliferation
[7] = tested on: Ovarian Cell Line NCI/ADR-RES; assay: cells; format: cell-based; conditions: Homo sapiens, single dose, 10 uM compound concentration, read-out: inhibition of proliferation
[8] = tested on: Breast Cancer Cell Line HS 578T; format: cell-based; conditions: Homo sapiens; HS 578T; single dose, 10 uM compound concentration; read-out: inhibition of proliferation
[9] = tested on: Breast Cancer Cell Line BT-549; assay: cells; format: cell-based; conditions: Homo sapiens; BT-549; single dose, 10 uM compound concentration; read-out: inhibition of proliferation
[10] = tested on: Ovarian Cell Line OVCAR-3; assay: cells; conditions: Homo sapiens, OVCAR-3, read-out: inhibition of proliferation
[11] = tested on: Breast Cancer Cell Line MDA-MB-468; assay: cells; conditions: Homo sapiens, MDA-MB-468, read-out: inhibition of proliferation

In the case of `CC[C@H](Nc1nc(N)nc(C)c1C#N)c1nc2cccc(CN(C)c3ncc(C(=O)NO)cn3)c2c(=O)n1-c1ccccc1` [LII, (S)-2-(((2-(1-((2-amino-5-cyano-6-methylpyrimidin-4-yl)amino)propyl)-4-oxo-3-phenyl-3,4-dihydroquinazolin-5-yl)methyl)(methyl)amino)-N-hydroxypyrimidine-5-carboxamide], the IC50 (HDAC6) is reported as < 100 nM, the inhibition at 10 µM [1] is reported as > 50% and the inhibition at 10 µM [2] is reported as > 50%. For the same compound, the inhibition at 10 µM (Leukemia Cell Line K-562) was > 50%, the inhibition at 10 µM [3] was > 50% and the inhibition at 10 µM [4] was > 50%. The inhibition at 10 µM [5] was > 50%, the inhibition at 10 µM (Ovarian Cell Line IGROV1) was > 50% and the inhibition at 10 µM [6] was > 50%. The inhibition at 10 µM [7] was 25 to 50%, the inhibition at 10 µM [8] was > 50% and the inhibition at 10 µM [9] was > 50%. For the same compound, the inhibition at 10 µM [10] was > 50% and the inhibition at 10 µM [11] was > 50%.
